Experimental data from patent publication US9763996B2, “Polymyxin derivative and uses thereof” (Northern Antibiotics Ltd., priority 2015, dated 2017).
In brackets after ≈: the same amount, converted by molar mass. Entries after “also recorded” stand apart in the source; their conditions may differ. Read-outs that look alike come from different tables or passages of the source. Blank lines part the entries; values can stand above or below the molecule they belong to. Where a SMILES comes first, the peptide text is derived from it. Bridges are numbered along the chain shown (N, C = ends). [ ]: non-standard residue; d: D form. The star is where a group is joined. Octanoyl = CCCCCCCC(=O)*; Dab = NCC[C@H](N)C(=O)O

Assays:
[1] = system: P. aeruginosa; test: Synergy studies with rifampin; format: cell-based, Pseudomonas aeruginosa; conditions: against P. aeruginosa
Procedure: Synergy studies were performed by using polymyxin derivatives in combination with rifampin, a model compound for such antibacterial agents that the intact outer membrane of Gram-negative bacteria acts as a permeability barrier.

[2] = 7-day IV infusion toxicity (nephrotoxicity) study in cynomolgus monkeys
Procedure: In vivo toxicity and toxicokinetic studies were performed by using cynomolgus monkeys. The laboratory that performed the animal studies is accredited by the Association for Assessment and Accreditation of Laboratory Animal Care (AAALAC), has an Animal Welfare Assurance issued by the Office of Laboratory Animal Welfare (OLAW), is registered with the United States Department of Agriculture (USDA), and has an Institutional Animal Care and Use Committee (IACUC) responsible for compliance with applicable laws and regulations concerning the humane care and use of laboratory animals.
Naïve female cynomolgus monkeys were acclimatized to study room for 28 days during which each animal was implanted with a permanent indwelling femoral catheter to permit continuous intravenous infusions. The animals were allowed surgical recovery period of at least 2 weeks before initiating dosing.
Polymyxin B sulfate was from Sigma-Aldrich (catalogue number P0972, lot number BCBF8382V). On each day of use, appropriate quantities of NAB739, NAB815 or polymyxin B were weighed and dissolved in appropriate volumes of sterile saline to prepare a stock solution for each test article and positive control. A correction factor was used in the stock solution preparation to account for both the purity and sulfate content in each test article. Accordingly, the dose (such as 36 mg/kg/d) refers to the dose of the pure peptide as its free base form, not as its sulfate salt.
The doses were the following: polymyxin B 18 mg/kg/d (Group 1), polymyxin B 24 mg/kg/d (Group 2), NAB739 24 mg/kg/d (Group 3), NAB739 36 mg/kg/d (Group 4), NAB815 24 mg/kg/d (Group 5), NAB815 36 mg/kg/d (Group 6). Three animals were included in each study groups.
(§1) For seven days, the animals were dosed by intravenous (IV) infusion three times daily (TID) at a dose volume of 10 mL/kg for 1 hour (±10 minutes), 8±0.5 hours apart. The day of initial dose administration was designated study Day 1, with subsequent days consecutively numbered. Days prior to the initial dose administration were consecutively numbered with the final day of acclimation referenced as Day −1.
(§2) The following parameters were evaluated at designed intervals: clinical observations, body weights, clinical pathology (hematology, coagulation, serum chemistry, urinalysis including urine sediments and urine chemistry), toxicokinetics (plasma and urine) and anatomic pathology (kidney). In cases of animals sacrificed on an unscheduled basis, samples were taken on the day of the sacrifice.
On the day of necropsy, animals were sedated with ketamine, weighed, and anesthetized with an intravenous injection of a commercial pentobarbital and phenytoin solution, followed by exsanguinations.
At necropsy, gross observations and organ weights were recorded, and specific tissues were collected. Histopathology was conducted on sections of kidney stained with hematoxylin and eosin (H&E).
The figures also show Urine N-acetyl-β-D-glucosaminidase/urine creatinine ratio (U-NAG/Crea; FIG. 3) and Urine Gamma Glutamyltransferase/urine creatinine ratio (U-GGT/Crea; FIG. 4), both urine biomarkers for kidney injury, in those animals. S-Crea and U-Crea were measured by using an Olympus Analyzer (OA) and the modified Jaffe method, S-BUN by using OA and urease/L-glutamate dehydrogenase. U-NAG was measured by using OA/enzymatic, and U-GGT by using OA and glutamyl-carboxy-p-nitroanilide IFCC.
The presence of the following nephro-pathological parameters was recorded in each animal: tubular basophilia (re-generation), tubular degeneration/necrosis, infiltration (by mononuclear and/or mixed inflammatory cells), tubular dilatation, and tubular casts.

[3] = Toxicokinetics (plasma and urine) in cynomolgus monkeys; conditions: cynomolgus monkey, in vivo; for AUC: plasma
Procedure: as §1, §2
Plasma and urine concentrations for toxicokinetic (TK) studies were determined by using liquid chromatograph interfaced with a mass spectrometer after precipitation of proteins. A sample (100 μL) was mixed with internal standard solution in water:formic acid (99:1 v/v; […]). Then, 600 μL of 100:1 acetonitrile:formic acid was added. The plates were centrifuged at 3200 rpm for 5 minutes. Using a Tomtec Quadra96, a 450 μL aliquot was transferred to a new 96-well plate and dried under nitrogen at 40° C. Then, 200 μL of water:methanol:formic acid (85:15:1 1 v/v) was added and the plate sealed for LC-MS/MS injection. LC-MS system consisted of Waters Acquity liquid chromatograph interfaced with a Thermo Scientific TSQ Quantitative triple quadrupole MS with ionization in the positive ion mode. Each sample (20 μL) was injected onto a Waters Acquity BEH Shield RP18 column (2.1×50 mm; 1.7 μm) equilibrated at 50° C. Mobile Phase A was 85:15:1 v/v water:methanol:formic acid. Mobile Phase B was 50:50:1 v/v acetonitrile:methanol:formic acid.
Peak area ratios from the calibration standard responses were regressed using a (1/concentration^2) linear fit for polymyxin B using colistin as the internal standard. For NAB739 and NAB815, peak areas from the calibration standard responses were regressed using a (1/concentration^2) quadratic fit (without the use of an internal standard).
The regression models were chosen based upon the behavior of the analytes across the concentration range used during development.
Toxicokinetic analysis was performed by using WinNonlin Phoenix version 6.3 software (Pharsight, Cary, N.C.). For plasma TK, noncompartmental IV infusion model was used.
In the cynomolgus monkey studies described in Example 3, where the peptides were administered as a 1-hour intravenous infusion three times daily, plasma and urine levels of the peptides were determined.

[4] = system: E. coli ATCC 25922; conditions: ATCC 25922
[5] = system: E. coli JMI 3328; conditions: JMI 3328
[6] = system: K. pneumoniae ATCC 43816; conditions: ATCC 43816
[7] = system: K. pneumoniae JMI 27072; conditions: JMI 27072
[8] = system: A. baumannii ATCC 19606; conditions: ATCC 19606
[9] = system: P. aeruginosa JMI 7445; conditions: JMI 7445
[10] = system: E. coli JMI 109; conditions: JMI 109
[11] = system: A. baumannii CMI 417; conditions: alone; A. baumannii CMI 417 (polymyxin-nonsusceptible)
[12] = system: E. coli ATCC 25922; test: microbe, parasite or virus in culture; conditions: Escherichia coli, ATCC25922
[13] = system: E. coli JMI 3328; test: microbe, parasite or virus in culture; conditions: Escherichia coli, JMI3328
[14] = system: K. pneumoniae ATCC 43816; test: microbe, parasite or virus in culture; conditions: Klebsiella pneumoniae, ATCC43816
[15] = system: K. pneumoniae JMI 27072; test: microbe, parasite or virus in culture; conditions: Klebsiella pneumoniae, JMI27072
[16] = system: A. baumannii ATCC 19606; test: microbe, parasite or virus in culture; conditions: Acinetobacter baumannii, ATCC19606
[17] = system: A. baumannii JMI 48125; test: microbe, parasite or virus in culture; conditions: Acinetobacter baumannii, JMI48125
[18] = system: P. aeruginosa JMI 7445; test: microbe, parasite or virus in culture; conditions: Pseudomonas aeruginosa, JMI7445
[19] = system: E. coli JMI 109; test: microbe, parasite or virus in culture; conditions: Escherichia coli, JMI109
[20] = system: K. pneumoniae JMI 27068; test: microbe, parasite or virus in culture; conditions: Klebsiella pneumoniae, JMI27068
[21] = system: A. baumannii CMI 417; test: microbe, parasite or virus in culture; conditions: Acinetobacter baumannii, CMI417
[22] = system: P. aeruginosa ATCC 27853; test: MIC assay (CLSI broth microdilution; checkerboard with rifampin); conditions: Pseudomonas aeruginosa, ATCC27853

SMILES: CCCCCCCC(=O)N[C@H](C(=O)N[C@H](CO)C(=O)N[C@H]1CCNC(=O)[C@H]([C@@H](C)O)NC(=O)[C@H](CCN)NC(=O)[C@H](CCN)NC(=O)[C@H](CC(C)C)NC(=O)[C@@H](Cc2ccccc2)NC(=O)[C@H](CCN)NC1=O)[C@@H](C)O [NAB739, octanoyl-Thr-DSer-[cyclo-α,γDab-αDab-DPhe-Leu-αDab-αDab-Thr]] (Octanoyl-T[dS][Dab][Dab][dF]L[Dab][Dab]T; lactam 3-C)
synergistic activity with rifampin [1]: lacked any notable synergistic activity with rifampin
kidney injury markers (S-BUN, S-Crea, U-NAG/Crea, U-GGT/Crea) ([2]; 36 mg/kg/d IV TID 7 days): all the four markers were significantly elevated; also recorded: both urine biomarkers were remarkably elevated
unscheduled necropsy / euthanized due to severe nephrotoxic effects ([2]; 36 mg/kg/d IV TID 7 days, 3 animals per group): One animal receiving NAB739 at 36 mg/kg/d had to be euthanized; also recorded: on Day 5 for one animal in the NAB739 group
kidney histopathology findings (grade of nephro-pathological parameters) ([2]; 36 mg/kg/d IV TID, H&E kidney sections, per animal(s)): marked tubular degeneration/necrosis; also recorded: marked presence of tubular casts; also recorded: moderate findings, both in two parameters
AUC ([3]; 36 mg/kg/day, AUCs, dosed at 36 mg/kg/d, day 1): 239 µg·h/mL
AUC ([3]; iv, 8 mg/kg, AUCs 0-8 h, after infusion of 8 mg/kg, day 1): 108 µg·h/mL
AUC ([3]; iv, 8 mg/kg, AUCs 0-8 h, after infusion of 8 mg/kg, day 7): 137 µg·h/mL
AUC ([3]; iv, 36 mg/kg/day, AUCs, dosed at 36 mg/kg/d, day 7): 302 µg·h/mL
dose excreted ([3]; female, iv, 36 mg/kg/d, urinary recoveries (0-8 h urine collection), 36 mg/kg/d, day 1, each animal): 15.4%
MIC [4]: 2 µg/mL (≈ 1.86 µM)
MIC [5]: 2 µg/mL (≈ 1.86 µM)
MIC [6]: 4 µg/mL (≈ 3.72 µM)
MIC [7]: 2 to 4 µg/mL
MIC [8]: 4 µg/mL (≈ 3.72 µM)
MIC [9]: 4 µg/mL (≈ 3.72 µM)
MIC [10]: 32 µg/mL (≈ 29.7 µM)
MIC [11]: 128 µg/mL (≈ 119 µM)

MIC [12]: 8 µg/mL (≈ 9.72 µM)
MIC [13]: 8 µg/mL (≈ 9.72 µM)
MIC [14]: 16 µg/mL (≈ 19.4 µM)
MIC [15]: 8 µg/mL (≈ 9.72 µM)
MIC [16]: 4 µg/mL (≈ 4.86 µM)
MIC [17]: 4 µg/mL (≈ 4.86 µM)
MIC [18]: 32 µg/mL (≈ 38.9 µM)
MIC [19]: 16 µg/mL (≈ 19.4 µM)
MIC [20]: 64 µg/mL (≈ 77.8 µM)
MIC [21]: 4 µg/mL (≈ 4.86 µM)
MIC [22]: 32 µg/mL
SMILES: CO[C@H]1/C=C/O[C@@]2(C)Oc3c(C)c(O)c4c(O)c(c(/C=N/N5CCN(C)CC5)c(O)c4c3C2=O)NC(=O)/C(C)=C\C=C\[C@H](C)[C@H](O)[C@@H](C)[C@@H](O)[C@@H](C)[C@H](OC(C)=O)[C@@H]1C [rifampin]
